Measurements published in ChEMBL document CHEMBL5113482, “Discovery of fused benzimidazole-imidazole autophagic flux inhibitors for treatment of triple-negative breast cancer” (Eur J Med Chem, 2022).

Legend:
MDA-MB-231 = assay: Antiproliferative activity against human MDA-MB-231 cells assessed as cell growth inhibition measured after 48 hrs by MTT assay; type: functional, cell-based; conditions: MDA-MB-231, 48 h
MDA-MB-468 = assay: Antiproliferative activity against human MDA-MB-468 cells assessed as cell growth inhibition measured after 48 hrs by MTT assay; type: functional, cell-based; conditions: MDA-MB-468, 48 h

Compound | IC50 (MDA-MB-231) | IC50 (MDA-MB-468)
O=C(NCc1ccco1)c1[nH]cnc1-c1nc2ccccc2[nH]1 | 22.2 µM | –
N#Cc1cccc(NC(=O)c2[nH]cnc2-c2nc3ccccc3[nH]2)c1 | 24.9 µM | –
O=C(Nc1cccc2ccccc12)c1[nH]cnc1-c1nc2ccccc2[nH]1 | 34.8 µM | –
Cc1cc2nc(-c3nc[nH]c3C(=O)NC3CCCCC3)[nH]c2cc1C | 35.6 µM | –
CC(C)(C)NC(=O)c1[nH]cnc1-c1nc2ccccc2[nH]1 | > 40 µM | –
Cn1c(-c2nc[nH]c2C(=O)NC2CCCCC2)nc2ccccc21 | 36.8 µM | –
O=C(NCc1cccs1)c1[nH]cnc1-c1nc2ccccc2[nH]1 | 35.1 µM | –
O=c1[nH]cc(F)c(=O)[nH]1 [FLUOROURACIL] | 26.7 µM | > 200 µM
O=C(NC1CCC1)c1[nH]cnc1-c1nc2ccccc2[nH]1 | 33.8 µM | –
O=C(NCC1CC1)c1[nH]cnc1-c1nc2ccccc2[nH]1 | 33.1 µM | –
Cn1cnc(-c2nc3ccccc3n2C)c1C(=O)NC1CCCCC1 | > 40 µM | –
O=C(c1[nH]cnc1-c1nc2ccccc2[nH]1)N1CCOCC1 | > 40 µM | –
O=C(NC1CCCC1)c1[nH]cnc1-c1nc2ccccc2[nH]1 | 20.6 µM | –
O=C(NC1CCCCCC1)c1[nH]cnc1-c1nc2ccccc2[nH]1 | > 40 µM | –
N#Cc1ccccc1NC(=O)c1[nH]cnc1-c1nc2ccccc2[nH]1 | 34.2 µM | –
O=C(NC1CC1)c1[nH]cnc1-c1nc2ccccc2[nH]1 | 35.2 µM | –
